Measured values taken from US20080113994A1, “Annelated Quinoline Derivatives As Pesticide” (priority 2004, published 2008).

Columns and labels:
Meloidogyne incognita = assay: Meloidogyne test (spray treatment); format: in vivo; details: 20 g/ha, nematicidal effect from formation of galls on lettuce roots
Procedure: Meloidogyne Test (Spray Treatment)
Solvent: 80 parts by weight of acetone
Containers are filled with sand, solution of active compound, Meloidogyne incognita egg/larvae suspension, and lettuce seeds. The lettuce seeds germinate and the plants develop. On the roots, galls are formed.
After the desired time, the nematicidal effect is determined in % from the formation of galls. 100% here means that no galls were found; 0% means that the number of galls on the treated plants corresponds to that in the untreated control.

[1] = tested on: greenhouse red spider mite (Tetranychus urticae); assay: Tetranychus test (OP-resistant/spray treatment); format: in vivo
Description: Tetranychus Test (OP-Resistant/Spray Treatment)
Disks of bean leaves (Phaseolus vulgaris) which are infested by all stages of the greenhouse red spider mite (Tetranychus urticae) are sprayed with an active compound preparation in the desired concentration.

CCN1CC2=C(C1=O)C(c1ccc(OC)cc1)c1cc3c(cc1N2)OCO3 (stereo not drawn)
Kill rate in % after 14^d (Meloidogyne incognita): 70%

COc1cc2c(cc1OC)C(c1ccc3c(c1)OCO3)C1=C(COC1=O)N2 (stereo not drawn) [Example 72]
Kill rate in % after 14^d (Meloidogyne incognita): 100%

Clc1cccc(C2C3=C(CCC3)Nc3cc4c(cc32)OCO4)c1 (stereo not drawn) [Example 30]
Kill rate in % after 7^d ([1]; 500 g/ha, after 7 d, sprayed bean leaf disks, all stages): 70%
efficacy (in words) ([1]; Tetranychus test): high efficacy

COc1ccc(C2C3=C(CN(c4ccccc4)C3=O)Nc3cc4c(cc32)OCO4)cc1 (stereo not drawn)
Kill rate in % after 14^d (Meloidogyne incognita): 70%

COc1cc2c(cc1OC)C(c1ccc3c(c1)OC(F)(F)O3)C1=C(COC1=O)N2 (stereo not drawn) [Example 68]
Kill rate in % after 14^d (Meloidogyne incognita): 80%
